We go through two molecules from PMC6381791, “Filamentous Aggregates Are Fragmented by the Proteasome Holoenzyme” (Cell Reports, 2019).

Assay [1] has as its target T1, 26S proteasome holoenzyme (proteolytic core sites) (Homo sapiens, UniProt P28074).
T1 construct: gene PSMB5; 26S holoenzyme (20S core with one or two 19S caps) purified from HEK293T via Rpn11-His6-TEV-biotin, TEV eluted; with Proteasome subunit beta type-1; Proteasome subunit beta type-2; Proteasome subunit beta type-3; Proteasome subunit beta type-4; Proteasome subunit alpha type-1; Proteasome subunit alpha type-2; Proteasome subunit alpha type-3; Proteasome subunit alpha type-4; Proteasome subunit alpha type-5; Proteasome subunit alpha type-6; Proteasome subunit alpha type-7; 26S proteasome non-ATPase regulatory subunit 14
Nature of the assay: AMC fluorescence ([…] nm). Format: biochemical. The following applies: 1 μM substrate, 40 nM proteasome, alone or with heparin or tau aggregates.

Assay [2] concerns the target T2, α-synuclein (αS), fibrils (Homo sapiens, UniProt P37840).
T2 construct: gene SNCA; untagged wild-type recombinant from E. coli BL21(DE3) pLysS; fibrils assembled in PBS with shaking
In words: TIRF single-aggregate fluorescence. Format: binding. Conditions: 30 nM pFTAA in PBS, 100 nM αS (monomer equivalent); binds amyloid fibrils.

Structures are written as SMILES. Numbered stars: 1 amine (or outer) side, 2 acyl side, 3 side chain; on linkers, the order of the positions; unused ones are H or OH. Peptide text beside a SMILES is read from it. * marks the point of attachment. AMC = Cc1cc(=O)oc2cc(N*)ccc12; Suc = O=C(CCC(=O)[*:2])[*:1]

As for `Cc1cc(=O)oc2cc(NC(=O)[C@H](Cc3ccc(O)cc3)NC(=O)[C@@H](NC(=O)[C@H](CC(C)C)NC(=O)[C@H](CC(C)C)NC(=O)CCC(=O)O)C(C)C)ccc12` [LLVY-AMC] (Suc-LLVY-{AMC}), in assay [1], the “AMC fluorescence (340/440 nm)” value is on record as “proteasomal peptidase activity against a model substrate, suc-Leu-Leu-Val-Tyr-7-amino-4-methylcoumarin (LLVY-AMC)”.

For the molecule `O=C(O)Cc1cc(-c2ccc(C(=O)O)s2)sc1-c1ccc(-c2sc(-c3ccc(C(=O)O)s3)cc2CC(=O)O)s1` [pFTAA], the TIRF single-aggregate fluorescence entry in assay [2] is recorded as “Fibrils assembled from αS could be reproducibly detected”.
